In the NIST ThermoML archive (doi:10.1021/je900656c):
± gives the expanded uncertainty stated by the source.

What was measured:
[1] = 303.15 K, 101 kPa, Liquid; for viscosity: Capillary tube (Ostwald / Ubbelohde) method; for mass density: Pycnometric method
[2] = wn = mass fraction of the nth substance listed; conditions: 303.15 K, 101 kPa, Liquid; for viscosity: Capillary tube (Ostwald / Ubbelohde) method; for mass density: Pycnometric method

COCCO [2-methoxyethan-1-ol]
viscosity [1]: 1.404 ± 0.023 mPa·s | mass density [1]: 956 ± 2 kg/m3

COCCO [2-methoxyethan-1-ol] + CO
viscosity ([2]; w1 = 0.1): 0.538 ± 0.011 mPa·s | viscosity ([2]; w1 = 0.2): 0.557 ± 0.011 mPa·s | viscosity ([2]; w1 = 0.3): 0.577 ± 0.011 mPa·s | viscosity ([2]; w1 = 1): 1.404 ± 0.023 mPa·s | mass density ([2]; w1 = 0.1): 798 ± 1 kg/m3 | mass density ([2]; w1 = 0.2): 817 ± 2 kg/m3 | mass density ([2]; w1 = 0.3): 833 ± 2 kg/m3 | mass density ([2]; w1 = 1): 956 ± 2 kg/m3

CO [methanol]
viscosity [1]: 0.523 ± 0.01 mPa·s | mass density [1]: 782 ± 1 kg/m3

CO [methanol] + COCCO
viscosity ([2]; w2 = 0): 0.523 ± 0.01 mPa·s | mass density ([2]; w2 = 0): 782 ± 1 kg/m3
